From US20080242544A1, “Phytoactive Composition” (priority 2004, published 2008)
Read-outs that look alike come from different tables or passages of the source.

How the values were obtained:
[1] = cited from earlier work; for logP: Table 6
Field Pansy = tested on: Field Pansy; parameters: species or system Viola avensis; settings: in vivo

For `CCSC(=O)N1CCCCCC1` [molinate], the “Log Pow” value ([1]; Table 5, no pH given) is listed as 2.9.

In the case of `CCOc1nc(F)cc2nc(S(=O)(=O)Nc3c(Cl)cccc3C(=O)OC)nn12` [cloransulam-methyl], the “Log Pow” value ([1]; Table 5, no pH given) is listed as 1.2.

For `CC(C)C1(C)N=C(c2nc3ccccc3cc2C(=O)O)NC1=O` (stereo not shown) [imazaquin], the “Log Pow” value ([1]; Table 5, no pH given) is given as 2.9.

In the case of `CCOCCOC(=O)C(C)Oc1ccc(Oc2ncc(C(F)(F)F)cc2Cl)cc1` (stereo not shown) [haloxyfop-etotyl], the “Log Pow” value ([1]; Table 5, no pH given) is given as 4.3.

For `COC(=O)Nc1cccc(OC(=O)Nc2cccc(C)c2)c1` [phenmedipham], the “Log Pow” value ([1]; pH 3.9) is given as 3.6 (pH 3.9).

In the case of `O=C(OCc1ccccc1)c1sc(Cl)nc1C(F)(F)F` [flurazole], the logP [1] is given as 4.1.

In the case of `CCOC1Oc2ccc(OS(C)(=O)=O)cc2C1(C)C` (stereo not shown) [ethofumesate], the “Log Pow” value ([1]; Table 5, no pH given) is given as 2.7.

For `COC(=O)c1c(Cl)c(Cl)c(C(=O)OC)c(Cl)c1Cl` [chlorthal-dimethyl], the “Log Pow” value ([1]; Table 5, no pH given) is given as 4.3.

For `CON(C)C(=O)Nc1ccc(Oc2ccc3c(c2)OC(C)(OC)CC3(C)C)cc1` (stereo not shown) [metobenzuron], the “Log Pow” value ([1]; Table 5, no pH given) is given as 6.3.

For `CCN(C(=O)n1nnn(-c2ccccc2Cl)c1=O)C1CCCCC1` [Fentrazamide], the “Log P” value ([1]; Table 4, no pH given) is listed as 3.60.

In the case of `Cc1ccc(C(=O)COc2c(C(=O)c3ccc(Cl)c(C)c3Cl)c(C)nn2C)cc1` [benzofenap], the “Log Pow” value ([1]; Table 5, no pH given) is given as 4.7.

For `CCOC(=O)Cc1cccc2ccccc12` [ethyl 1-naphthylacetate], the logP [1] is given as 3.8.

For `CON(C)C(=O)Nc1ccc(Cl)c(Cl)c1` [linuron], the “Log Pow” value ([1]; Table 5, no pH given) is listed as 3.

For `CCc1cccc(C)c1N(C(=O)CCl)C(C)COC` (stereo not shown) [Metolachlor], the “Log P” value ([1]; Table 4, no pH given) is listed as 3.00 and the “Log Pow” value ([1]; Table 5, no pH given) is listed as 2.9.

In the case of `CCOc1cc(Oc2ccc(C(F)(F)F)cc2Cl)ccc1[N+](=O)[O-]` [oxyfluorfen], the “Log Pow” value ([1]; Table 5, no pH given) is listed as 4.5 and the logP [1] is listed as 4.5.

For `CN(C)C(=O)Nc1ccccc1` [fenuron], the “Log Pow” value ([1]; Table 5, no pH given) is given as 1.4.

In the case of `CCCCCCCCSC(=O)Oc1cc(Cl)nnc1-c1ccccc1` [pyridate], the “Log Pow” value ([1]; Table 5, no pH given) is listed as 4.

For `COc1ccc(NC(=O)N(C)C)cc1Cl` [metoxuron], the “Log Pow” value ([1]; Table 5, no pH given) is given as 1.6.

For `CCCCOC(=O)[C@@H](C)Oc1ccc(Oc2ccc(C(F)(F)F)cn2)cc1` [fluazifop-p-butyl], the “Log Pow” value ([1]; Table 5, no pH given) is given as 4.5.

For `Cc1nnc(-c2ccccc2)c(=O)n1N` [metamitron], the “Log Pow” value ([1]; Table 5, no pH given) is given as 0.8.

For `C#CC(C)(C)NC(=O)c1cc(Cl)cc(Cl)c1` [propyzamide], the “Log Pow” value ([1]; Table 5, no pH given) is listed as 3.2.

For `CC(=O)Nc1cc(NS(=O)(=O)C(F)(F)F)c(C)cc1C` [mefluidide], the “Log Pow” value ([1]; Table 5, no pH given) is listed as 2.

In the case of `CCNc1nc(NC(C)(C)C)nc(OC)n1` [terbumeton], the “Log Pow” value ([1]; Table 5, no pH given) is listed as 3.

For `O=C(O)COc1nc(Cl)c(Cl)cc1Cl` [triclopyr], the “Log Pow” value ([1]; Table 5, pH 5) is listed as 0.4 (pH 5).

In the case of `CCCN(CCC)c1c([N+](=O)[O-])cc(C(F)(F)F)cc1[N+](=O)[O-]` [trifluralin], the “Log Pow” value ([1]; Table 5, no pH given) is listed as 4.8.

For `CC(C)c1nn(C(=O)NC(C)(C)C)c(=O)n1N` [amicarbazone], the “Log P” value ([1]; pH 7) is given as 1.23 (pH 7).

In the case of `Cc1cccc(C)c1N(Cn1cccn1)C(=O)CCl` [metazachlor], the “Log Pow” value ([1]; Table 5, no pH given) is given as 2.1.

In the case of `CCCCOC(=O)C(C)Oc1ccc(Oc2ccc(C(F)(F)F)cn2)cc1` (stereo not shown) [fluazifop-butyl], the “Log Pow” value ([1]; Table 5, no pH given) is listed as 4.5.

In the case of `O=C(O)c1cc(Oc2ccc(C(F)(F)F)cc2Cl)ccc1[N+](=O)[O-]` [acifluorfen], the “Log Pow” value ([1]; Table 5, no pH given) is listed as 4.2.

In the case of `CCc1cnc(C2=NC(C)(C(C)C)C(=O)N2)c(C(=O)O)c1` (stereo not shown) [imazethapyr], the “Log P” value ([1]; pH 7) is given as 1.49 (pH 7).

In the case of `COC(=O)c1ccccc1S(=O)(=O)NC(=O)Nc1nc(C)cc(C)n1` [sulfometuron-methyl], the “Log Pow” value ([1]; pH 5) is given as 1.2 (pH 5).

For `CCCC(=NOCC)C1=C(O)CC(C2CCCSC2)CC1=O` (stereo not shown) [cycloxydim], the “Log Pow” value ([1]; Table 5, no pH given) is given as 1.4.

In the case of `CS(=O)(=O)c1cc(Cl)ccc1C(=O)c1cnoc1C1CC1` [Isoxachlortole], the “Log P” value ([1]; pH 2) is given as 2.76 (pH 2).

In the case of `CCC(CC)Nc1c([N+](=O)[O-])cc(C)c(C)c1[N+](=O)[O-]` [pendimethalin], the “Log Pow” value ([1]; Table 5, no pH given) is given as 5.2 and the logP [1] is given as 5.2.

In the case of `C#CCN1C(=O)COc2cc(F)c(N3C(=O)C4=C(CCCC4)C3=O)cc21` [flumioxazin], the “Log Pow” value ([1]; Table 5, no pH given) is listed as 1.3.

For `C[C@@H]1CC[C@@H](C(C)(C)S)C(=O)C1` [(1R,4R)-8-mercapto-3-p-menthanone], the “logP(o/w)” value ([1]; Table 1, carriers) is listed as 2.9.

For `COC(=O)c1ccccc1S(=O)(=O)NC(=O)Nc1nc(OC(F)F)cc(OC(F)F)n1` [primisulfuron-methyl], the “Log Pow” value ([1]; Table 5, pH 7) is given as 0.2 (pH 7).

For `C[C@@H](Oc1ccc(Oc2ccc(C(F)(F)F)cn2)cc1)C(=O)O` [fluazifop-P], the “Log Pow” value ([1]; Table 5, no pH given) is listed as 3.1.

For `CCc1cccc(C)c1N(C(=O)CCl)[C@@H](C)COC` [S-metolachlor], the “Log Pow” value ([1]; Table 5, no pH given) is given as 3.1.

For `COc1ccsc1CN(C(=O)CCl)c1c(C)cccc1C` [thenylchlor], the “Log Pow” value ([1]; Table 5, no pH given) is listed as 3.5.

In the case of `CCc1cccc(C)c1N(COC(C)C)C(=O)CCl` [propisochlor], the “Log Pow” value ([1]; Table 5, no pH given) is listed as 3.5.

In the case of `CS(=O)(=O)c1ccc(C(=O)C2C(=O)CCCC2=O)c([N+](=O)[O-])c1` [Mesotrione], the “Log P” value ([1]; Table 4, no pH given) is listed as 2.2.

For `CC(Oc1ccc(Oc2ncc(C(F)(F)F)cc2Cl)cc1)C(=O)O` (stereo not shown) [haloxyfop], the “Log Pow” value ([1]; Table 5, no pH given) is listed as 3.4.

In the case of `COC(=O)[C@@H](C)Oc1ccc(Oc2ncc(C(F)(F)F)cc2Cl)cc1` [haloxyfop-P-methyl], the “Log Pow” value ([1]; Table 5, no pH given) is given as 4.

In the case of `C#CCOc1cc(-n2nc3n(c2=O)CCCC3)c(Cl)cc1Cl` [azafenidin], the “Log Pow” value ([1]; Table 5, no pH given) is listed as 2.7.

In the case of `CS(=O)(=O)NC(=O)c1cc(Oc2ccc(C(F)(F)F)cc2Cl)ccc1[N+](=O)[O-]` [fomesafen], the “Log Pow” value ([1]; pH 1) is given as 2.9 (pH 1).

For `CCNc1nc(Cl)nc(NC(C)(C)C)n1` [terbuthylazine], the “Log Pow” value ([1]; Table 5, no pH given) is given as 3.2.

In the case of `COc1cc(OC)nc(Oc2cccc(Oc3nc(OC)cc(OC)n3)c2C(=O)ON=C(c2ccccc2)c2ccccc2)n1` [pyribenzoxim], the “Log Pow” value ([1]; Table 5, no pH given) is given as 3.

For `Cc1cc(Cl)ccc1OCC(=O)O` [MCPA, (4-chloro-2-methylphenoxy)acetic acid], the “plant vigour of Pansy versus untreated” value (Field Pansy) is given as “more vigorous plants than untreated only plants” and the “Log Pow” value ([1]; pH 1) is given as 2.8 (pH 1).

For `CCNc1nc(Cl)nc(NCC)n1` [simazine], the “Log Pow” value ([1]; Table 5, no pH given) is listed as 2.1.

In the case of `CCCOCCN(C(=O)CCl)c1c(CC)cccc1CC` [pretilachlor], the “Log Pow” value ([1]; Table 5, no pH given) is given as 4.1.

In the case of `Cc1ccc(NC(=O)N(C)C)cc1Cl` [chlorotoluron], the “Log Pow” value ([1]; Table 5, no pH given) is given as 2.5.

In the case of `CCC(=O)Nc1ccc(Cl)c(Cl)c1` [propanil], the “Log Pow” value ([1]; Table 5, no pH given) is listed as 3.3.

In the case of `CCOC(=O)c1cnn(C)c1S(=O)(=O)NC(=O)Nc1nc(OC)cc(OC)n1` [pyrazosulfuron-ethyl], the “Log Pow” value ([1]; Table 5, no pH given) is given as 1.3.

In the case of `COc1cc(OC)n2nc(S(=O)(=O)Nc3c(Cl)ccc(C)c3Cl)nc2n1` [metosulam], the “Log Pow” value ([1]; pH 9) is given as 3.1 (pH 9).

In the case of `N#Cc1cc(Br)c(O)c(Br)c1` [bromoxynil], the “Log Pow” value ([1]; Table 5, no pH given) is listed as 2.8 and the logP [1] is listed as 2.8.

For `COC(=O)c1cc(Oc2ccc(Cl)cc2Cl)ccc1[N+](=O)[O-]` [bifenox], the “Log Pow” value ([1]; Table 5, no pH given) is listed as 4.5.

In the case of `CNc1cnn(-c2cccc(C(F)(F)F)c2)c(=O)c1Cl` [norflurazon], the “Log Pow” value ([1]; Table 5, no pH given) is listed as 2.5 and the logP [1] is listed as 2.45.
